Key:
[1] = biological target: T1, C3 (BV2 cell proteins) (Mus musculus, UniProt P01027); assay: DARTS (Pronase), MS and Western blot; format: biochemical; conditions: 200 µM Tan I, 1 h; Pronase 30 min
T1 construct: endogenous C3 in BV2 (mouse microglial line) protein extract; detected by Western blot, 130-250 kDa band identified by MS

[2] = biological target: T2, C3 (complement C3), RED-NHS labelled; assay: microscale thermophoresis (Monolith NT.[…]); format: binding; conditions: 25 °C, PBS with 5% DMSO compound stocks, Tan I up to 25 µM
T2 construct: human purified C3 equally possible

[3] = biological target: T1, C3 (BV2 cell proteins); assay: CETSA in BV2 protein extract, Western blot; format: biochemical; conditions: Tan I 1 h; 40-65 °C, 3 min

T1 sequence (P01027 25-666): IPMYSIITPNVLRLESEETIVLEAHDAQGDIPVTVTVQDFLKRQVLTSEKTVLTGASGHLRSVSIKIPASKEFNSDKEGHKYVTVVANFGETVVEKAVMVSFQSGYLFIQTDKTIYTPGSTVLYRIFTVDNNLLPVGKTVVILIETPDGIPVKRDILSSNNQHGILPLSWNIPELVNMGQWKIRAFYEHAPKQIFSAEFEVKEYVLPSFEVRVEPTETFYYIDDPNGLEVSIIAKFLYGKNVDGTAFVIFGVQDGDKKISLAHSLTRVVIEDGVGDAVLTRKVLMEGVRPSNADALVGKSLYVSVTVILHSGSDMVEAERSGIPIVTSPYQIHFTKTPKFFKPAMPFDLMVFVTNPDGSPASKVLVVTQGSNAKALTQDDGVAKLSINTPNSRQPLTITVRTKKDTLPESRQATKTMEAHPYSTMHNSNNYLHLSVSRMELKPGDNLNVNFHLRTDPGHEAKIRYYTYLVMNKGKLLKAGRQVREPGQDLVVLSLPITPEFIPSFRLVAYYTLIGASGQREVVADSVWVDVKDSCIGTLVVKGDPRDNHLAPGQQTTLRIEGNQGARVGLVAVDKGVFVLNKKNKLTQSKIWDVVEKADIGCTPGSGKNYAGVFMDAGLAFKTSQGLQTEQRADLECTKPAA
T1 sequence (P01027 671-1663): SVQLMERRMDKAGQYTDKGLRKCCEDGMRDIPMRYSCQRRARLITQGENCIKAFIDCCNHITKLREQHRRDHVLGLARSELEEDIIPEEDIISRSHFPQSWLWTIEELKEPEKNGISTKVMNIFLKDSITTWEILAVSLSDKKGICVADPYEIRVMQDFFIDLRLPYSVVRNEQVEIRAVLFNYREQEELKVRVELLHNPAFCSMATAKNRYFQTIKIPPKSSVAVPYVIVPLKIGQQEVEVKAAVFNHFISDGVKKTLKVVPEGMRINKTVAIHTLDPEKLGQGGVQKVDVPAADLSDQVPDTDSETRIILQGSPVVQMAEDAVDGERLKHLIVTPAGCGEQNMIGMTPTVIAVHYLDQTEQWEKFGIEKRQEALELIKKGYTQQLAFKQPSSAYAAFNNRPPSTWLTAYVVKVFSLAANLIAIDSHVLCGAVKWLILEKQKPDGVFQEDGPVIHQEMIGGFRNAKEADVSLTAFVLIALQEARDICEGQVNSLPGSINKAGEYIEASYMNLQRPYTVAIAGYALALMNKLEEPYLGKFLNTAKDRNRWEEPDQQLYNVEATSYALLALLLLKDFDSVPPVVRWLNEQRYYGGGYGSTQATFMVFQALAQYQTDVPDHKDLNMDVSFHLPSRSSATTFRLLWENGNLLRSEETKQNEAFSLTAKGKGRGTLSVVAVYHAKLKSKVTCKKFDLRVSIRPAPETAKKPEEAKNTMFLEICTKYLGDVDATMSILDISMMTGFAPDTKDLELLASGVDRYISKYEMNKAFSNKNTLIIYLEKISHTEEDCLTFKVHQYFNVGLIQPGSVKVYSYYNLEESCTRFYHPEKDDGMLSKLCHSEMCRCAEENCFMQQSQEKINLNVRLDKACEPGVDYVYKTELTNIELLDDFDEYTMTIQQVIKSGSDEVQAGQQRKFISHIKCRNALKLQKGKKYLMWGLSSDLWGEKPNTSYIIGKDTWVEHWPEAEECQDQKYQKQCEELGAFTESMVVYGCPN

Cc1coc2c1C(=O)C(=O)c1c-2ccc2c(C)cccc12 [Tan I]
protection from proteolysis (DARTS) [1]: Tan I protected C3 from proteolytic degradation
Kd [2]: 3.75 ± 3.31 µM
thermal stabilisation (CETSA) [3]: Tan I significantly enhances the thermal stability of C3 in a certain temperature range

From publication PMC12374583, “Targeting complement C3 with Tanshinone I decreases microglia-mediated synaptic engulfment to exert antidepressant effects” (Theranostics, 2025)
